Read-outs that look alike come from different tables or passages of the source.
Tests used:
[1] = tested on: HIV-1 integrase mutant virus G140S/Q148H; test: Single cycle infectivity assay in HeLa P4-2 cells, integrase mutant G140S/Q148H virus; assay type: cell-based; settings: fold shift in IC50 versus wild type IIIB
Method in brief: (§1)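 HeLa P4-2 cells used in a single-cycle acute HIV-1 infection assay. Wild-type IIIB or integrase mutant viruses made by site-directed mutagenesis of proviral plasmids and produced by transfection of 293T cells.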

[2] = tested on: HIV-1 integrase mutant virus N155H; test: Single cycle infectivity assay in HeLa P4-2 cells, integrase mutant N155H virus; assay type: cell-based; settings: fold shift in IC50 versus wild type IIIB
Method in brief: as §1

HIV-1 wild type IIIB = test: Single cycle infectivity assay in HeLa P4-2 cells, wild type virus; assay type: cell-based
Method in brief: as §1

[3] = tested on: HIV-1 integrase mutant virus Y143R; test: Single cycle infectivity assay in HeLa P4-2 cells, integrase mutant Y143R virus; assay type: cell-based; settings: fold shift in IC50 versus wild type IIIB
Method in brief: as §1

[4] = tested on: HIV-1 integrase mutant virus Q148R; test: Single cycle infectivity assay in HeLa P4-2 cells, integrase mutant Q148R virus; assay type: cell-based; settings: fold shift in IC50 versus wild type IIIB
Method in brief: as §1

HIV-1 = test: Inhibition of acute HIV-1 infection of T-lymphoid cells (spread assay); assay type: cell-based; settings: 10% FBS, read-out: IC95 (nM) in the presence of 10% FBS
Method: Assays for the inhibition of acute HIV-1 infection of T-lymphoid cells were conducted in accordance with Vacca, J. P. et al., Proc. Natl. Acad. Sci. USA 1994, 91: 4096.

HIV-1 integrase = target: T1, HIV-1 integrase (Human immunodeficiency virus type 1 group M subtype B, UniProt P04585); test: HIV integrase assay: strand transfer catalyzed by recombinant integrase; assay type: biochemical; settings: strand transfer activity
T1 construct: strand transfer activity of HIV-1 integrase
Method: Assays for the strand transfer activity of HIV-1 integrase were conducted in accordance with WO 02/30930 for recombinant integrase.
Further description on conducting the assay using preassembled complexes is found in Wolfe, A. L. et al., J. Virol. 1996, 70: 1424-1432, Hazuda et al., J. Virol. 1997, 71: 7005-7011; Hazuda et al., Drug Design and Discovery 1997, 15: 17-24; and Hazuda et al., Science 2000, 287: 646-650.

[5] = Human immunodeficiency virus 1, IIIB, HeLaP4-2, wild type IIIB
[6] = Human immunodeficiency virus 1, T-lymphoid

Cc1cc(CNC(=O)c2nc3n(c(=O)c2O)CC2CCC3(N(C)C(=O)C(=O)N(C)C)CO2)ccc1F (single isomer, unassigned) [Example 11B]
G140S/Q148H (shift) [1]: 14 fold | N155H (shift) [2]: 5 fold | IC50 (HIV-1 wild type IIIB; wild type IIIB): 112 nM | Y143R (shift) [3]: 1 fold | Q148R (shift) [4]: 2 fold | IC95 (HIV-1): 7.8 nM | IC50 (HIV-1 integrase): 14 nM

CN(C)C(=O)C(=O)N(C)C12CCC(Cn3c1nc(C(=O)NCc1ccc(F)cc1)c(O)c3=O)OC2 (single isomer, unassigned) [Example 10A, N-(4-{[(4-fluorobenzyl)amino]carbonyl}-5-hydroxy-6-oxo-10-oxa-3,7-diazatricyclo[7.2.2.0^2,7]trideca-2,4-dien-1-yl)-N′,N′N′-trimethylethanediamide]
G140S/Q148H (shift) [1]: 26 fold | N155H (shift) [2]: 5 fold | IC50 (HIV-1 wild type IIIB; wild type IIIB): 221 nM | Y143R (shift) [3]: 1 fold | Q148R (shift) [4]: 4 fold | IC95 (HIV-1): 9.0 nM | IC50 (HIV-1 integrase): 5 nM

CN(C)C(=O)C(=O)NC12CCC(CC1)Cn1c2nc(C(=O)NCc2ccc(F)cc2)c(O)c1=O [Example 5, N′-{2-[(4-fluorobenzyl)carbamoyl]-3-hydroxy-4-oxo-6,7,8,9-tetrahydro-7,10-ethanopyrimido[1,2-a]azepin-10(4H)-yl}-N,N-dimethylethanediamide]
G140S/Q148H (shift) [1]: 9 fold | N155H (shift) [2]: 2 fold | IC50 (HIV-1 wild type IIIB; [5]): 6.7 nM | Y143R (shift) [3]: 1 fold | Q148R (shift) [4]: 1 fold | IC95 (HIV-1; [6]): < 3.9 nM | IC50 (HIV-1 integrase): 33 nM

CN(C(=O)C(=O)N1CCOCC1)C12CCC(CC1)Cn1c2nc(C(=O)NCc2ccc(F)cc2)c(O)c1=O [Example 3, N-(4-fluorobenzyl)-5-hydroxy-1-{methyl[morpholin-4-yl(oxo)acetyl]amino}-6-oxo-3,7-diazatricyclo[7.2.2.0^2,7]trideca-2,4-diene-4-carboxamide]
G140S/Q148H (shift) [1]: 9 fold | N155H (shift) [2]: 2 fold | IC50 (HIV-1 wild type IIIB; [5]): 31 nM | Y143R (shift) [3]: 1 fold | Q148R (shift) [4]: 2 fold | IC95 (HIV-1; [6]): 11 nM | IC50 (HIV-1 integrase): 32 nM

CCN(C(=O)C(=O)N(C)C)C12CCC(Cn3c1nc(C(=O)NCc1ccc(F)cc1)c(O)c3=O)OC2 (single isomer, unassigned) [Example 12B, N-Ethyl-N-(4-{[(4-fluorobenzyl)amino]carbonyl}-5-hydroxy-6-oxo-10-oxa-3,7-diazatricyclo[7.2.2.0^2,7]trideca-2,4-dien-1-yl)-N′,N′-dimethylethanediamide]
G140S/Q148H (shift) [1]: 240 fold | N155H (shift) [2]: 56 fold | IC50 (HIV-1 wild type IIIB; wild type IIIB): 7 nM | Y143R (shift) [3]: 7 fold | Q148R (shift) [4]: 32 fold | IC95 (HIV-1): 19 nM | IC50 (HIV-1 integrase): 18 nM

Cc1cc(CNC(=O)c2nc3n(c(=O)c2O)CC2CCC3(N(C)C(=O)C(=O)N(C)C)CC2)ccc1F [Example 2, N-(4-{[(4-fluoro-3-methylbenzyl)amino]carbonyl}-5-hydroxy-6-oxo-3,7-diazatricyclo[7.2.2.0^2,7]trideca-2,4-dien-1-yl)-N,N′,N″-trimethylethanediamide]
G140S/Q148H (shift) [1]: 5 fold | N155H (shift) [2]: 2 fold | IC50 (HIV-1 wild type IIIB; [5]): 4 nM | Y143R (shift) [3]: 1 fold | Q148R (shift) [4]: 2 fold | IC95 (HIV-1; [6]): 7.2 nM | IC50 (HIV-1 integrase): 15 nM

CN(C)C(=O)C(=O)N(C)C12CCC(CC1)Cn1c2nc(C(=O)NCc2ccc(F)cc2)c(O)c1=O [Example 1, N-(4-{[(4-fluorobenzyl)amino]carbonyl}-5-hydroxy-6-oxo-3,7-diazatricyclo[7.2.2.0^2,7]trideca-2,4-dien-1-yl)-N′,N′,N″-trimethylethanediamide]
G140S/Q148H (shift) [1]: 15 fold | N155H (shift) [2]: 3 fold | IC50 (HIV-1 wild type IIIB; [5]): 7.2 nM | Y143R (shift) [3]: 2 fold | Q148R (shift) [4]: 2 fold | IC95 (HIV-1; [6]): 6.2 nM | IC50 (HIV-1 integrase): 13 nM

N-5-{[(4-fluorolbenzyl)amino]carbonyl}-4-hydroxy-3-oxo-2,6-diazatricyclo[6.3.2.0^2,7]trideca-4,6-dien-8-yl)-N,N′,N′-trimethylethanediamide [Example 24B]
G140S/Q148H (shift) [1]: 6 fold | N155H (shift) [2]: 3 fold | IC50 (HIV-1 wild type IIIB; wild type IIIB): 7 nM | Y143R (shift) [3]: 2 fold | Q148R (shift) [4]: 1 fold | IC95 (HIV-1): 7.4 nM | IC50 (HIV-1 integrase): 24 nM

CN1CCN(C(=O)C(=O)N(C)C23CCC(CC2)Cn2c3nc(C(=O)NCc3ccc(F)cc3)c(O)c2=O)CC1 [Example 4]
G140S/Q148H (shift) [1]: 4 fold | N155H (shift) [2]: 4 fold | IC50 (HIV-1 wild type IIIB; [5]): 33 nM | Y143R (shift) [3]: 1 fold | Q148R (shift) [4]: 3 fold | IC95 (HIV-1; [6]): 39 nM | IC50 (HIV-1 integrase): 14 nM

CC1C2CCC(N(C)C(=O)C(=O)N(C)C)(CC2)c2nc(C(=O)NCc3ccc(F)cc3)c(O)c(=O)n21 (single isomer, unassigned) [Example 13A, N-(4-{[(4-fluorobenzyl)amino]carbonyl}-5-hydroxy-8-methyl-6-oxo-3,7-diazatricyclo[7.2.2.0^2,7]trideca-2,4-dien-1-yl)-N′,N′,N″-trimethylethanediamide]
G140S/Q148H (shift) [1]: 2 fold | N155H (shift) [2]: 2 fold | IC50 (HIV-1 wild type IIIB; [5]): 7 nM | Y143R (shift) [3]: 2 fold | Q148R (shift) [4]: 1 fold | IC95 (HIV-1): 8.6 nM | IC50 (HIV-1 integrase): 13 nM

CCN(C(=O)C(=O)N(C)C)C12CCC(Cn3c1nc(C(=O)NCc1ccc(F)cc1)c(O)c3=O)OC2 (single isomer, unassigned) [Example 12A, N-Ethyl-N-(4-{[(4-fluorobenzyl)amino]carbonyl}-5-hydroxy-6-oxo-10-oxa-3,7-diazatricyclo[7.2.2.0^2,7]trideca-2,4-dien-1-yl)-N′,N′-dimethylethanediamide]
G140S/Q148H (shift) [1]: 112 fold | N155H (shift) [2]: 6 fold | IC50 (HIV-1 wild type IIIB; wild type IIIB): 23 nM | Y143R (shift) [3]: 2 fold | Q148R (shift) [4]: 7 fold | IC95 (HIV-1; [6]): 11 nM | IC50 (HIV-1 integrase): 11 nM

O=C(NC12CCC(CC1)Cn1c2nc(C(=O)NCc2ccc(F)cc2)c(O)c1=O)C(=O)N1CCOCC1 [Example 6, N-(4-Fluorobenzyl)-3-hydroxy-10-{[morpholin-4-yl(oxo)acetyl]amino}-4-oxo-4,6,7,8,9,10-hexahydro-7,10-ethanopyrimido[1,2-a]azepine-2-carboxamide]
G140S/Q148H (shift) [1]: 5 fold | N155H (shift) [2]: 2 fold | IC50 (HIV-1 wild type IIIB; [5]): 9 nM | Y143R (shift) [3]: 1 fold | Q148R (shift) [4]: 2 fold | IC95 (HIV-1; [6]): 5.3 nM | IC50 (HIV-1 integrase): 37 nM

CC1C2CCC(N(C)C(=O)C(=O)N(C)C)(CC2)c2nc(C(=O)NCc3ccc(F)cc3)c(O)c(=O)n21 (single isomer, unassigned) [Example 13B, N-(4-{[(4-fluorobenzyl)amino]carbonyl}-5-hydroxy-8-methyl-6-oxo-3,7-diazatricyclo[7.2.2.0^2,7]trideca-2,4-dien-1-yl)-N′,N′,N″-trimethylethanediamide]
G140S/Q148H (shift) [1]: >209 fold | N155H (shift) [2]: 30 fold | IC50 (HIV-1 wild type IIIB; wild type IIIB): 8 nM | Y143R (shift) [3]: 7 fold | Q148R (shift) [4]: 57 fold | IC95 (HIV-1): 20 nM | IC50 (HIV-1 integrase): 13 nM

CN(C(=O)C(=O)N1CCOCC1)C12CCC(Cn3c1nc(C(=O)NCc1ccc(F)cc1)c(O)c3=O)C2 (stereo not shown) [Example 9, N-(4-Fluorobenzyl)-3-hydroxy-10-{methyl[morpholin-4-yl(oxo)acetyl]amino}-4-oxo-4,6,7,8,9,10-hexahydro-7,10-methanopyrimido[1,2-a]azepine-2-carboxamide]
G140S/Q148H (shift) [1]: 40 fold | N155H (shift) [2]: 5 fold | IC50 (HIV-1 wild type IIIB; [5]): 43 nM | Y143R (shift) [3]: 2 fold | Q148R (shift) [4]: 11 fold | IC95 (HIV-1; [6]): 15 nM

CCC12CCC(N(C)C(=O)C(=O)N(C)C)(CO1)c1nc(C(=O)NCc3ccc(F)cc3)c(O)c(=O)n1C2 (single isomer, unassigned) [Example 20A, N-(9-ethyl-4-{[(4-fluorolbenzyl)amino]carbonyl}-5-hydroxy-6-oxo-10-oxa-3,7-diazatricyclo[7.2.2.0^2,7]trideca-2,4-dien-1-yl)-N,N′,N′-trimethylethanediamide]
G140S/Q148H (shift) [1]: 21 fold | N155H (shift) [2]: 3 fold | IC50 (HIV-1 wild type IIIB; wild type IIIB): 8 nM | Y143R (shift) [3]: 1 fold | Q148R (shift) [4]: 2 fold | IC95 (HIV-1; [6]): 11 nM

CCC12CCC(N(C)C(=O)C(=O)N(C)C)(CO1)c1nc(C(=O)NCc3ccc(F)cc3)c(O)c(=O)n1C2 (single isomer, unassigned) [Example 20B, N-(9-ethyl-4-{[(4-fluorolbenzyl)amino]carbonyl}-5-hydroxy-6-oxo-10-oxa-3,7-diazatricyclo[7.2.2.0^2,7]trideca-2,4-dien-1-yl)-N,N′,N′-trimethylethanediamide]
G140S/Q148H (shift) [1]: 102 fold | N155H (shift) [2]: 7 fold | IC50 (HIV-1 wild type IIIB; wild type IIIB): 17 nM | Y143R (shift) [3]: 1 fold | Q148R (shift) [4]: 11 fold | IC95 (HIV-1): 16.7 nM

Source: patent US20120022045A1, “BRIDGED COMPOUNDS AS HIV INTEGRASE INHIBITORS” (priority 2009, published 2012)
